Counter-ions that a name gives are not always drawn.
Tests used:
[1] = tested on: kallikrein pruriogeneic animal; assay: Antipruritic test of kallikrein pruriogeneic animal (therapeutical test); format: in vivo, Hartley-strain male guinea pigs
Source text: There is already known a pruriogeneic substance other than bradyokinin which cannot be inhibited by antihistamines; namely, kallikrein (International Journal of Dermatology, Vol. 14, pages 465 - 484, 1975).
Using healthy Hartley-strain male guinea pigs, bradykinin, which is a pruriogeneic substance, was intradermally administered at the side abdominal part to obtain a pruriogeneic animal.
The pruriginous behaviors were rated according to the standards shown below and represented as pruriginous activity.
(§1) For six guinea pigs of one group, the above-mentioned behavior observation was conducted by three or more members at the same time for 20 minutes, and the pruriginous activity (score) determined as an average value ± standard deviation of the evaluation scores, and the antripruritic effect judged by the significance difference test with the Vehicle control group according to the Student's T test.
Healthy male guinea pigs (weighing 450 - 600 g) depilated at the right abdominal side part by electrical clippers on the previous day were divided into three groups of six.
Using the same test method as in 4-1, animals were divided into four groups of 6.

pruritus of bradykinin [2] = assay: Antipruritic effect test (therapeutical test), bradykinin pruriogeneic animal, sample applied 5 minutes after bradykinin; format: in vivo, Hartley-strain male guinea pigs; conditions: 1 wt.%
Method: (§2) Using healthy Hartley-strain male guinea pigs, bradykinin, which is a pruriogeneic substance, was intradermally introduced at the side abdominal part to obtain a pruriogeneic animal.
(§3) The pruriginous behaviors were rated according to the standards shown below, and represented as pruriginous activity.
as §1, with “For four or” for “For”
Healthy guinea pigs (weighing 450 - 600 g) depilated at the right abdominal side part on the previous day were divided into three groups of 6.
Using the same test methods as described above, the zinc picolinate preparation and the crotamiton preparation each of 1% concentration were examined by comparison with the Vehicle control group.

[3] = tested on: histamine pruriogeneic animal; assay: Antipruritic effect test of histamine pruriogeneic animal (therapeutical test); format: in vivo, Hartley-strain male guinea pigs; conditions: Table 10; 3 wt.%, 0.1 ml applied five minutes after histamine 50 µg/0.05 ml intradermal; vehicle control 16.6 ± 0.5
plasmin = target: T1, plasmin (Homo sapiens, UniProt P00747); assay: Antiplasmin activity, fibrin plate method; format: biochemical; conditions: 50% inhibition of fibrinolytic activity by plasmin; pre-incubation 37°C 30 minutes
T1 construct: purchased Sigma
Method: The antiplasmin active action was determined as the sample amount necessary for a 50% inhibition (IC₅₀: mg/ml) from the inhibition ratio of the fibrinolytic activity by plasmin, by using the fibrin plate method.
A fibrin plate was prepared according to the method of Warren et al. (Hemostasis Vol. 4, page 110, 1975) by dissolving under heating 100 mg of agarose in 5 ml of a 0.01 M phosphate buffer supplemented with 0.15 M sodium chloride, followed by cooling to 50°C. In this solution was dissolved 10 mg of a plasminogen free fibrinogen (Daiichi Kagaku Yakuhin), and after 0.1 ml of a thrombin solution (100 units/ml, Mochida Seiyaku) was dropwise added to the solution, the mixture was immediately poured into a laboratory dish (diameter 9 cm, Terumo) and left to cool, to be thereby solidified. A plasminogen free fibrin plate was prepared. By forming a well 6 mm in diameter at the center of the dish.

pruritus of bradykinin [4] = assay: Antipruritic effect test, bradykinin pruriogeneic animal, sample applied immediately before bradykinin; format: in vivo, Hartley-strain male guinea pigs; conditions: bradykinin 10 µg/0.1 ml
Method: as §2, §3
as §1, with “For four or” for “For”
Immediately thereafter, bradykinin 10 µg/0.1 ml was subcutaneously administered at the same applied site, and the score (average value ± standard deviation) of pruriginous activity by pruriginous behaviors was examined by comparison.
As described above in (1), healthy male guinea pigs (weighing 450 - 600 g) depilated at the right abdominal side part by electrical clippers on the previous day were divided into four groups each of four, of which one group was externally applied at the right abdominal side part with only the vehicle for external application (Vehicle control), and other groups with respective preparations of a mixture group of 1.24% by weight of picolinic acid and 2.88% by weight of zinc sulfate corresponding respectively to the picolinic acid amount and the zinc amount of 3% by weight of zinc picolinate, a 2.88% by weight zinc sulfate single substance group and a 3.17% by weight of zinc pyrithione group corresponding to the zinc amount in each 0.1 ml amount. Immediately thereafter, bradykinin 10 µg/0.1 ml was subcutaneously administered at the same applied site, and the score of pruriginous activity by pruriginous behaviors was examined by comparison.

bradykinin = assay: Antipruritic effect test (therapeutical test) of chelated zinc compounds other than zinc picolinate, bradykinin; format: in vivo, guinea pigs; conditions: 1% (by weight), 0.1 ml applied 5 minutes after bradykinin 50 µg/0.5 ml intradermal; average score compared with Vehicle control group; 85% or less judged effective
Method: Healthy male guinea pigs (weighing 450 - 600 g) depilated at the right abdominal side part by electrical clippers on the previous day were divided into three groups of 6. At the right abdominal side part was intradermally administered 50 µg/0.5 ml of bradykinin, and 5 minutes later, one group was externally applied at the site where bradykinin had been applied with only the vehicle for external application (Vehicle control), and other groups with each 1% (by weight) concentration of samples in each 0.1 ml amount, and the average value of the scores of antipruritic activity by pruriginous behaviors was examined by comparison with the Vehicle control group.
The antipruritic effect was judged to be effective for an average value of the scores of 85% or less.

[5] = tested on: rats (Sprague Dawley strain); assay: Acute toxicity tests; format: in vivo
Method: First, the toxicity of the antipruritic agent according to the present invention was examined. Acute toxicity tests were conducted by using healthy 5 to 6 weeks old male and female rats (Sprague Dawley strain). An oral administration was made by suspending zinc picolinate in 20% carboxymethyl cellulose, and a subcutaneous administration was made by suspending zinc picolinate in 10% carboxylmethyl cellulose.

[6] = tested on: skin (Futat skin and Abraded skin); conditions: rabbit, in vivo
Method: The test was conducted according to the method of the FDA method (U.S. Food and Drug Administration method).
Eight Japanese White species rabbits weighing 2.3 to 3 kg were depilated at the back by electrical clippers and divided into two groups of four, one group being as such (Futat skin) and the other group having an abrasion made at the testing side (Adraded skin), and were fixed on a fixer. An amount of 0.3 ml of the test substance was applied to the skin by a sticking plaster for an animal test having a lint cloth 25 mm in diameter. After 24 hours, the sticking plaster was removed, and the reaction of the skin evaluated in terms of the degrees of erythema and edema, according to the following standards. The judgement was again performed 72 hours later.
The skin primary irritation evaluation score is shown by an average value obtained by adding average values of a judgement of the formation of erythema and edema after 24 and 72 hours for four rabbits with Futat skin and Abraded skin, and dividing the value by the animal test sample number of 4.
The standards of the evaluation score (average value) of the skin safety is as shown below. Evaluation score less than 2: slight irritation or substantially no irritation Evaluation score of 2 - 5: moderate irritation Evaluation score of 5 or more: strong irritation The results are shown in Table-2.

[7] = Table 9, 3 wt.%, 0.1 ml applied after kallikrein intradermal, vehicle control 18.68 ± 2.06
[8] = Table 7, same test methods as above (therapeutical test, bradykinin), vehicle control 35.4 ± 3.1
[9] = Table 5, 0.1 ml applied 5 minutes after bradykinin 50 µg/0.05 ml intradermal, vehicle control 30.1 ± 3.6

T1 sequence (P00747 581-810 limits assumed, species assumed): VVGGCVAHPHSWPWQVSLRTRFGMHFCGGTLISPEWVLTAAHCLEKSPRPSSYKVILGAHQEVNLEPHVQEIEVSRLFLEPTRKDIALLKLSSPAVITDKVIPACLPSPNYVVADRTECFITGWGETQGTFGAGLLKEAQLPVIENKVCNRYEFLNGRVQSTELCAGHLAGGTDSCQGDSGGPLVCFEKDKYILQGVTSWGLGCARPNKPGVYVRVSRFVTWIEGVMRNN
T1 sequence (P00747 97-580 limits assumed, species assumed): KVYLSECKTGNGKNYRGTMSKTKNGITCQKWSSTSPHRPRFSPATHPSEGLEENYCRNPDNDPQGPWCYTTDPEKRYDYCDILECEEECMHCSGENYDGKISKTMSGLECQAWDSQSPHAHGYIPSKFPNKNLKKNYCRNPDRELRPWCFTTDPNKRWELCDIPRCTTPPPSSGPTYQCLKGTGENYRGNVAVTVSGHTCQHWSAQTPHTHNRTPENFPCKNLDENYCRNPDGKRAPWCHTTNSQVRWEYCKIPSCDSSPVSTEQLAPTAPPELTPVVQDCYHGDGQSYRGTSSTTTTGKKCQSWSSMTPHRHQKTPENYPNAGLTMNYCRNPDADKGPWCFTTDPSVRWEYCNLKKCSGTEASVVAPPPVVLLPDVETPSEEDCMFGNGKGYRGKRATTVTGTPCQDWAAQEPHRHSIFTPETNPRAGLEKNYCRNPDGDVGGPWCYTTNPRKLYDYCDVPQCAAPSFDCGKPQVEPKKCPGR

Question: Which “Pruritic activity/20 min.” value [1, 7] does the source give for CC=CC(=O)N(CC)c1ccccc1C [Crotamiton, reference compound] here?
Answer: Its value is 15.15 ± 1.92.

Question: What about the “Pruritic activity/20 min.” value (pruritus of bradykinin [2]; [8]) of the same compound?
Answer: Its value is 29.3 ± 3.3.

Question: And the “Pruritic activity/20 min.” value [3]?
Answer: The value was 18.9 ± 2.5.

Question: With CN(C)CCOC(c1ccccc1)c1ccccc1 [Diphenhydramine hydrochloride, reference compound] as the compound, how does the IC₅₀ (plasmin) read?
Answer: Its IC₅₀ is “No action at 10 mg/ml”.

Question: For CN(C)CCOC(c1ccccc1)c1ccccc1 [Diphenhydramine, reference compound], which “Pruritic activity/20 min.” value [1, 7] is on record?
Answer: Its value is 17.00 ± 1.26.

Question: And the “Pruritic activity/20 min.” value (pruritus of bradykinin [2]; [9])?
Answer: The value was 27.9 ± 2.0.

Question: And the “Pruritic activity/20 min.” value [3]?
Answer: Its value is 12.4 ± 0.5.

Question: What about the “Pruritic activity/20 min.” value (pruritus of bradykinin [4]; Table 4, 1 wt.%, 0.1 ml external, mean ± SD, vehicle control 45.7 ± 5.7) of the same compound?
Answer: Its value is 36.9 ± 3.0.

Question: With zinc 3-hexyloxypicolinate [J] as the compound, how does the “Pruritic activity score (%)” value (bradykinin) read?
Answer: The value was 75.7%.

Question: With zinc 3-hydroxypicolinate as the compound, how does the “Pruritic activity score (%)” value (bradykinin) read?
Answer: Its value is 58.0%.

Question: Which “Pruritic activity score (%)” value (bradykinin) does the source give for “zinc 3-methylpicolinate [Compound No. B]” here?
Answer: The value was 65.9%.

Question: For “zinc 3-propoxypicolinate [Compound No. D]”, which “Pruritic activity score (%)” value (bradykinin) is on record?
Answer: Its value is 41.2%.

Question: With “zinc 3-undecylpicolinate [Compound No. M]” as the compound, how does the “Pruritic activity score (%)” value (bradykinin) read?
Answer: The value was 70.1%.

Question: With “zinc 4-carboxypicolinate [Compound No. S]” as the compound, how does the “Pruritic activity score (%)” value (bradykinin) read?
Answer: Its value is 66.3%.

Question: With “zinc 4-chloropicolinate [Compound No. R]” as the compound, how does the “Pruritic activity score (%)” value (bradykinin) read?
Answer: The value was 18.5%.

Question: For “zinc 4-methylpicolinate [Compound No. C]”, which “Pruritic activity score (%)” value (bradykinin) is on record?
Answer: Its value is 74.1%.

Question: For zinc 4-nitropicolinate [Compound No. Q], which “Pruritic activity score (%)” value (bradykinin) is on record?
Answer: Its value is 58.3%.

Question: For “zinc 4-t-butylpicolinate [Compound No. I]”, which “Pruritic activity score (%)” value (bradykinin) is on record?
Answer: The value was 63.3%.

Question: For “zinc 4-undecylpicolinate [Compound No. N]”, which “Pruritic activity score (%)” value (bradykinin) is on record?
Answer: Its value is 64.4%.

Question: For “zinc 5-(2-ethylhexyloxy)picolinate [Compound No. L]”, which “Pruritic activity score (%)” value (bradykinin) is on record?
Answer: The value was 60.3%.

Question: Which “Pruritic activity score (%)” value (bradykinin) does the source give for “zinc 5-butoxypicolinate [Compound No. G]” here?
Answer: Its value is 66.2%.

Question: Which “Pruritic activity score (%)” value (bradykinin) does the source give for “zinc 5-propoxypicolinate [Compound No. E]” here?
Answer: The value was 81.5%.

Question: Which “Pruritic activity score (%)” value (bradykinin) does the source give for “zinc 6-butoxypicolinate [Compound No. H]” here?
Answer: The value was 71.8%.

Question: With “zinc 6-hexyloxypicolinate [Compound No. K]” as the compound, how does the “Pruritic activity score (%)” value (bradykinin) read?
Answer: The value was 74.8%.

Question: For “zinc 6-undecylpicolinate [Compound No. O]”, which “Pruritic activity score (%)” value (bradykinin) is on record?
Answer: The value was 65.0%.

Question: For zinc picolinate, which “Pruritic activity/20 min.” value ([1]; Table 8, 0.01 wt.%, 0.1 ml applied five minutes after kallikrein 25 units/0.05 ml intradermal, vehicle control 19.95 ± 2.41) is on record?
Answer: The value was 12.95 ± 0.95.

Question: And the “Pruritic activity/20 min.” value ([1]; Table 8, 10 wt.%, 0.1 ml applied five minutes after kallikrein 25 units/0.05 ml intradermal, vehicle control 19.95 ± 2.41)?
Answer: The value was 12.85 ± 0.70.

Question: And the “Pruritic activity/20 min.” value [1, 7]?
Answer: The value was 12.95 ± 0.95.

Question: And the LD₅₀ value ([5]; Female rats, Oral)?
Answer: The LD₅₀ value was greater than 2000 mg/kg.

Question: What about the Lethality ([5]; Female rats, Oral, dose 200 mg/kg, suspended in 20% carboxymethyl cellulose) of the same compound?
Answer: Its Lethality is 0/5.

Question: What about the Lethality ([5]; Female rats, Subcutaneous, dose 70 mg/kg) of the same compound?
Answer: Its Lethality is 0/5.

Question: What about the Lethality ([5]; Female rats, Subcutaneous, dose 91 mg/kg) of the same compound?
Answer: Its Lethality is 0/5.

Question: And the Lethality ([5]; Female rats, Subcutaneous, dose 118 mg/kg)?
Answer: The Lethality was 2/5.

Question: And the Lethality ([5]; Female rats, Subcutaneous, dose 154 mg/kg)?
Answer: Its Lethality is 5/5.

Question: What about the Lethality ([5]; Female rats, Subcutaneous, dose 200 mg/kg) of the same compound?
Answer: Its Lethality is 5/5.

Question: And the LD₅₀ value ([5]; Female rats, Subcutaneous, suspended in 10% carboxylmethyl cellulose)?
Answer: The LD₅₀ value was 122 mg/kg.

Question: And the LD₅₀ value ([5]; Male rats, Oral)?
Answer: Its LD₅₀ value is greater than 2000 mg/kg.

Question: And the Lethality ([5]; Male rats, Oral, dose 200 mg/kg, suspended in 20% carboxymethyl cellulose)?
Answer: Its Lethality is 0/5.

Question: And the Lethality ([5]; Male rats, Subcutaneous, dose 70 mg/kg)?
Answer: The Lethality was 0/5.

Question: What about the Lethality ([5]; Male rats, Subcutaneous, dose 91 mg/kg) of the same compound?
Answer: Its Lethality is 1/5.

Question: What about the Lethality ([5]; Male rats, Subcutaneous, dose 118 mg/kg) of the same compound?
Answer: The Lethality was 2/5.

Question: And the Lethality ([5]; Male rats, Subcutaneous, dose 154 mg/kg)?
Answer: The Lethality was 4/5.

Question: And the Lethality ([5]; Male rats, Subcutaneous, dose 200 mg/kg)?
Answer: The Lethality was 5/5.

Question: What about the LD₅₀ value ([5]; Male rats, Subcutaneous, suspended in 10% carboxylmethyl cellulose) of the same compound?
Answer: The LD₅₀ value was 121 mg/kg.

Question: And the “Skin primary irritation evaluation score” value [6]?
Answer: Its value is 1.6.

Question: What about the “Pruritic activity/20 min.” value (pruritus of bradykinin [2]; [9]) of the same compound?
Answer: Its value is 14.9 ± 0.3.

Question: And the “Pruritic activity/20 min.” value (pruritus of bradykinin [2]; [8])?
Answer: Its value is 12.7 ± 0.7.

Question: What about the IC₅₀ (plasmin) of the same compound?
Answer: Its IC₅₀ is 2.3 mg/mL.

Question: And the “Pruritic activity/20 min.” value [3]?
Answer: The value was 7.4 ± 0.5.

Question: What about the “Pruritic activity/20 min.” value (pruritus of bradykinin [4]; Table 4, 0.01 wt.%, 0.1 ml external, mean ± SD, vehicle control 45.7 ± 5.7) of the same compound?
Answer: The value was 17.5 ± 2.4.

Question: And the “Pruritic activity/20 min.” value (pruritus of bradykinin [4]; Table 4, 10 wt.%, 0.1 ml external, mean ± SD, vehicle control 45.7 ± 5.7)?
Answer: Its value is 15.5 ± 1.6.

Question: And the “Pruritic activity/20 min.” value (pruritus of bradykinin [4]; Table 6, 3 wt.%, 0.1 ml, vehicle control 40.1 ± 6.7)?
Answer: The value was 17.7 ± 1.4^*1.

Question: What about the “amount soluble in water as such” value of the same compound?
Answer: Its value is no more than 0.5 % by weight.

Question: Which “Pruritic activity score (%)” value (bradykinin) does the source give for “zinc picolinate N-oxide [Compound No. P]” here?
Answer: Its value is 85.0%.

Question: For zinc pyrithione [reference compound], which “Pruritic activity/20 min.” value (pruritus of bradykinin [4]; Table 6, 3.17 wt.%, 0.1 ml, vehicle control 40.1 ± 6.7) is on record?
Answer: The value was 43.4 ± 6.4.

Question: With zinc sulfate [reference compound] as the compound, how does the “Pruritic activity/20 min.” value (pruritus of bradykinin [4]; Table 6, 2.88 wt.%, 0.1 ml, vehicle control 40.1 ± 6.7) read?
Answer: Its value is 33.7 ± 5.2.

Reference: patent EP0433457B1, “ANTIPRURITIC COMPOSITION” (SHISEIDO COMPANY LIMITED, priority 1989, dated 1990)
